# Data reported in US9932340B2, “Substituted indoles” (AbbVie Inc., priority 2014, dated 2018).
# Target: SUV420H1 enzyme (Homo sapiens, UniProt Q4FZB7)
# Experiment: TR-FRET SAH SUV420H1 enzyme inhibition assay
# Assay type: biochemical
# Details: Histone Peptide H4(8-30)me1 and SAM, overnight at room temp, TR-FRET detection of SAH, read-out: TR-FRET SAH_SUV420H1 IC50
# How it was run: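 SUV420H1 (90 nM) preincubated 30 min with compound (3-fold dilutions, 50 to 0.00075 μM), then H4(8-30)me1 peptide 5 nM and SAM 4 nM added, overnight at room temp. SAH product detected by TR-FRET with Tb anti-SAH antibody and Oregon Green-SAH in RIPA buffer, 4 h; IC50 from Hill fit, asymptotes fixed 0-100%.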
# Sequence of SUV420H1 enzyme (Q4FZB7 whole entry): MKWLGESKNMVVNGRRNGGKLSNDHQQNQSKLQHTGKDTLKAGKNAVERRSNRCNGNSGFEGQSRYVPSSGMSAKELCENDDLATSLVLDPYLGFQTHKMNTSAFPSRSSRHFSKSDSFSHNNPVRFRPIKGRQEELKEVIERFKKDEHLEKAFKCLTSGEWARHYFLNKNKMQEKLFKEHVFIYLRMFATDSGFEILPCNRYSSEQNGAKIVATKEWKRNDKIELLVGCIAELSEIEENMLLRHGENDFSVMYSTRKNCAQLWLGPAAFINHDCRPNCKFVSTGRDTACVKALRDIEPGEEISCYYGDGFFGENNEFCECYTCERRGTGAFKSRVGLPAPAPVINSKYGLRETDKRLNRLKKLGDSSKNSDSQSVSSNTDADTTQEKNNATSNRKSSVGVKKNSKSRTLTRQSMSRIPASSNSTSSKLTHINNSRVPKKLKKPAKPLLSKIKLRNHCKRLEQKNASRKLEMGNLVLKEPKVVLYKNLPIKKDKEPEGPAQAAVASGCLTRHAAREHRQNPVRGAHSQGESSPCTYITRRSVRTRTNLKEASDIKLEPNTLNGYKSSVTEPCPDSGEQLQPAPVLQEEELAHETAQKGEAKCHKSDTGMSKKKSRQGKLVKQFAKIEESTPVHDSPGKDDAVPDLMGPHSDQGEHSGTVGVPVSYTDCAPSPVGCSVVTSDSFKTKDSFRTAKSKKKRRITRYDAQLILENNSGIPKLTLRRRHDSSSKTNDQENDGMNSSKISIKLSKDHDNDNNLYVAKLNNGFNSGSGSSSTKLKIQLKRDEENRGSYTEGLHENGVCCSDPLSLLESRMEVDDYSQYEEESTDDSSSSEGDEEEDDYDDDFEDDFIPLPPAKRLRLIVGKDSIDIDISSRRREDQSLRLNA
row,Structure (SMILES),IC50 [µM]
1,"Nc1ncnc2c1ncn2Cc1cc(Cl)cc2cc(CNC(=O)[C@@H]3CCCN3)[nH]c12 [Example 115, (2S)—N-({7-[(6-amino-9H-purin-9-yl)methyl]-5-chloro-1H-indol-2-yl}methyl)pyrrolidine-2-carboxamide]",3.53
2,"Nc1ncnc2c1ncn2Cc1cc(Cl)cc2cc(CNC(=O)[C@H]3CCCN3)[nH]c12 [Example 116, (2R)—N-({7-[(6-amino-9H-purin-9-yl)methyl]-5-chloro-1H-indol-2-yl}methyl)pyrrolidine-2-carboxamide]",8.28
3,"Nc1ncnc2c1ncn2Cc1cc(Cl)cc2cc(CNC(=O)[C@@H]3CCC(=O)N3)[nH]c12 [Example 117, (2S)—N-({7-[(6-amino-9H-purin-9-yl)methyl]-5-chloro-1H-indol-2-yl}methyl)-5-oxopyrrolidine-2-carboxamide]",14.1
4,"Nc1ncnc2c1ncn2Cc1cc(Cl)cc2cc(CNC(=O)[C@H]3CCC(=O)N3)[nH]c12 [Example 118, (2R)—N-({7-[(6-amino-9H-purin-9-yl)methyl]-5-chloro-1H-indol-2-yl}methyl)-5-oxopyrrolidine-2-carboxamide]",18.4
5,"Nc1ncnc2c1ncn2Cc1cc(Cl)cc2cc(CNC(=O)C3CCCC3)[nH]c12 [Example 119, N-({7-[(6-amino-9H-purin-9-yl)methyl]-5-chloro-1H-indol-2-yl}methyl)cyclopentanecarboxamide]",6.41
6,"Nc1ncnc2c1ncn2Cc1cc(Cl)cc2cc(CNC(=O)CN3CCCC3)[nH]c12 [Example 120, N-({7-[(6-amino-9H-purin-9-yl)methyl]-5-chloro-1H-indol-2-yl}methyl)-2-(pyrrolidin-1-yl)acetamide]",1.49
7,"Nc1ncnc2c1ncn2Cc1cc(Cl)cc2cc(CNC(=O)CC3CCCC3)[nH]c12 [Example 121, N-({7-[(6-amino-9H-purin-9-yl)methyl]-5-chloro-1H-indol-2-yl}methyl)-2-cyclopentylacetamide]",2.56
8,"Nc1ncnc2c1ncn2Cc1cc(Cl)cc2cc(CNC(=O)CCN3CCCC3)[nH]c12 [Example 122, N-({7-[(6-amino-9H-purin-9-yl)methyl]-5-chloro-1H-indol-2-yl}methyl)-3-(pyrrolidin-1-yl)propanamide]",4.77
9,"CC(C)(C)OC(=O)N1CCC[C@H]1C(=O)NCc1cc2cc(Cl)cc(Cn3cnc4c(N)ncnc43)c2[nH]1 [Example 123, tert-butyl (2S)-2-[({7-[(6-amino-9H-purin-9-yl)methyl]-5-chloro-1H-indol-2-yl}methyl)carbamoyl]pyrrolidine-1-carboxylate]",44.9
10,"CC(C)(C)OC(=O)N1CCC[C@@H]1C(=O)NCc1cc2cc(Cl)cc(Cn3cnc4c(N)ncnc43)c2[nH]1 [Example 124, tert-butyl (2R)-2-[({7-[(6-amino-9H-purin-9-yl)methyl]-5-chloro-1H-indol-2-yl}methyl)carbamoyl]pyrrolidine-1-carboxylate]",23.9
11,"Nc1ncnc2c1ncn2Cc1cc(Cl)cc2cc(CN3CCS(=O)(=O)CC3)[nH]c12 [Example 125, 9-({5-chloro-2-[(1,1-dioxidothiomorpholin-4-yl)methyl]-1H-indol-7-yl}methyl)-9H-purin-6-amine]",4.62
12,"Nc1ncnc2c1ncn2Cc1cc(Cl)cc2cc(CNC(=O)C3CCOCC3)[nH]c12 [Example 126, N-({7-[(6-amino-9H-purin-9-yl)methyl]-5-chloro-1H-indol-2-yl}methyl)tetrahydro-2H-pyran-4-carboxamide]",2.23
13,"Nc1ncnc2c1ncn2Cc1cc(Cl)cc2cc(CNC(=O)CN3CCOCC3)[nH]c12 [Example 127, N-({7-[(6-amino-9H-purin-9-yl)methyl]-5-chloro-1H-indol-2-yl}methyl)-2-(morpholin-4-yl)acetamide]",6
14,"Nc1ncnc2c1ncn2Cc1cc(Cl)cc2cc(CNC(=O)C3CCCCC3)[nH]c12 [Example 128, N-({7-[(6-amino-9H-purin-9-yl)methyl]-5-chloro-1H-indol-2-yl}methyl)cyclohexanecarboxamide]",3.34
15,"CC1(C(=O)NCc2cc3cc(Cl)cc(Cn4cnc5c(N)ncnc54)c3[nH]2)CCCCC1 [Example 129, N-({7-[(6-amino-9H-purin-9-yl)methyl]-5-chloro-1H-indol-2-yl}methyl)-1-methylcyclohexanecarboxamide]",28.4
16,"CC1CCC(C(=O)NCc2cc3cc(Cl)cc(Cn4cnc5c(N)ncnc54)c3[nH]2)CC1 (centres unmarked) [Example 130, N-({7-[(6-amino-9H-purin-9-yl)methyl]-5-chloro-1H-indol-2-yl}methyl)-4-methylcyclohexanecarboxamide]",2.39
17,"CC1CCCC(C(=O)NCc2cc3cc(Cl)cc(Cn4cnc5c(N)ncnc54)c3[nH]2)C1 (centres unmarked) [Example 131, N-({7-[(6-amino-9H-purin-9-yl)methyl]-5-chloro-1H-indol-2-yl}methyl)-3-methylcyclohexanecarboxamide]",3.23
18,"CC1CCCCC1C(=O)NCc1cc2cc(Cl)cc(Cn3cnc4c(N)ncnc43)c2[nH]1 (centres unmarked) [Example 132, N-({7-[(6-amino-9H-purin-9-yl)methyl]-5-chloro-1H-indol-2-yl}methyl)-2-methylcyclohexanecarboxamide]",6.25
19,"Nc1ncnc2c1ncn2Cc1cc(Cl)cc2cc(CNC(=O)CC3CCCCC3)[nH]c12 [Example 133, N-({7-[(6-amino-9H-purin-9-yl)methyl]-5-chloro-1H-indol-2-yl}methyl)-2-cyclohexylacetamide]",31.9
20,"COC1CCC(C(=O)NCc2cc3cc(Cl)cc(Cn4cnc5c(N)ncnc54)c3[nH]2)CC1 (centres unmarked) [Example 134, N-({7-[(6-amino-9H-purin-9-yl)methyl]-5-chloro-1H-indol-2-yl}methyl)-4-methoxycyclohexanecarboxamide]",1.27
21,"Nc1ncnc2c1ncn2Cc1cc(Cl)cc2cc(CNC(=O)CCN3CCCCC3)[nH]c12 [Example 135, N-({7-[(6-amino-9H-purin-9-yl)methyl]-5-chloro-1H-indol-2-yl}methyl)-3-(piperidin-1-yl)propanamide]",4.54
22,"Nc1ncnc2c1ncn2Cc1cc(Cl)cc2cc(CNC(=O)C34CC5CC(CC(C5)C3)C4)[nH]c12 [Example 136, N-({7-[(6-amino-9H-purin-9-yl)methyl]-5-chloro-1H-indol-2-yl}methyl)tricyclo[3.3.1.1^3,7]decane-1-carboxamide]",10.5
23,"Nc1ncnc2c1ncn2Cc1cc(Cl)cc2cc(CNC(=O)c3ccns3)[nH]c12 [Example 137, N-({7-[(6-amino-9H-purin-9-yl)methyl]-5-chloro-1H-indol-2-yl}methyl)-1,2-thiazole-5-carboxamide]",2.04
24,"Nc1ncnc2c1ncn2Cc1cc(Cl)cc2cc(CNC(=O)c3cncs3)[nH]c12 [Example 138, N-({7-[(6-amino-9H-purin-9-yl)methyl]-5-chloro-1H-indol-2-yl}methyl)-1,3-thiazole-5-carboxamide]",1.64
25,"Nc1ncnc2c1ncn2Cc1cc(Cl)cc2cc(CNC(=O)c3cnsc3)[nH]c12 [Example 139, N-({7-[(6-amino-9H-purin-9-yl)methyl]-5-chloro-1H-indol-2-yl}methyl)-1,2-thiazole-4-carboxamide]",0.767
26,"Nc1ncnc2c1ncn2Cc1cc(Cl)cc2cc(CNC(=O)c3cscn3)[nH]c12 [Example 140, N-({7-[(6-amino-9H-purin-9-yl)methyl]-5-chloro-1H-indol-2-yl}methyl)-1,3-thiazole-4-carboxamide]",6.09
